According to article PMC10545747, “Development of cyclopeptide inhibitors of cGAS targeting protein-DNA interaction and phase separation” (Nature Communications, 2023):
≈ marks a conversion by molar mass, not a printed value. Where “and” joins values, the source holds several entries; their conditions need not be identical. Identical values can stand only once. Square brackets hold non-standard residues; d marks the D form. Peptide text beside a SMILES is read from it.

Legend:
[1] = in vitro; conditions: human, THP1 cells, Cell viability (Fig. S7a)
Experimental: (§1) Cell viability was measured by cell counting kit-8 (TargetMol) according to the manufacturer’s instructions.
(§2) Supplementary Fig. 2. […]
(§3) (e-g) THP1 cells (e), L929 cells (f) and RAW264.7 cells (g) were exposed to the indicated doses of XQ2 for 48h, the cell viability was measured by CCK8 assay. Data are representative of three independent experiments in (a-g). (Data are presented as mean ± SD, n = 3 independent samples in (a-g), **p < 0.01, ***p < 0.001, ****p < 0.0001 using one-way ANOVA with Dunnett’s post hoc test).
(§4) Source data are provided as a Source Data file. […]
(§5) Relative viability(%) XQ2B
(§6) Supplementary Fig. 7. […] (a) THP1 cells were exposed to the indicated doses of XQ2 or XQ2B for 48h. The cell viability was measured by CCK8 assay. […]
(§7) Data are representative of three independent experiments with similar results in (e), or three independent experiments in (a -d, f, g) . (Data are presented as mean ± SD, n = 3 independent samples in (a-d, f, g), ns, not significant, **p < 0.01, ***p < 0.001, ****p < 0.0001 using one-way ANOV A with Dunnett’s post hoc test). Source data are provided as a Source Data file.

[2] = system: THP1 cells; test: in vitro; conditions: for Cell viability (Fig. S7a): human, THP1 cells
Experimental: as §1, §2, §3, §4, §5, §6, §7

[3] = system: macrophage RAW264.7 cells; test: qPCR of Ifnb1/Cxcl10/Il6 mRNA in RAW264.7 cells (ISD or HSV-1); format: cell-based, mouse; set-up: key to Ifnb1 mRNA (Fig. S2c) / Cxcl10 mRNA (Fig. S2c) / Ifnb1 mRNA (Fig. S2d) / Cxcl10 mRNA (Fig. S2d) / Ifnb1 mRNA (Fig. S7g) / Cxcl10 mRNA (Fig. S7g) / Il6 mRNA (Fig. S7g): mRNA level normalized to GAPDH (relative expression)
Experimental: The indicated cells were stimulated with either ISD (Sangon Biotech), HSV-1 (Provided by Dr. Zhengfan Jiang), HSV60mer (Sangon Biotech), SATE-cddA[70], 2’3’-cGAMP (Invivogen, Cat# tlrl-nacga23-1), ADU-S100 (MedChemExpress, Cat# HY-12885A) or Poly(I:C) (Invivogen, Cat# tlrl-pic) after XQ2 or XQ2B treatment. Total RNA was isolated from indicated cells that incubated with the drugs for indicated time or mice tissues by using NucleoZOL reagent (MACHEREY-NAGEL) according to the manufacturer’s instructions. The quantifications of mRNA levels were carried out by real-time PCR using a PerfectStart® Uni RT&qPCR Kit (TransGen Biotech) on the QuantStudio 5 qPCR machine (Applied Biosystems). Samples were carried out in triplicate and the target CT values were normalized to GAPDH CT values. Primers of qPCR used in this study can be found in Supplementary Table S2. […]
(c) L929, p = 0.0005 (Ifnb1),
BMDMs, p = 0.0001 (Ifnb1), p < 0.0001 (Cxcl10).
representative of three independent experiments in (a-g). (Data are presented as mean ± SD, n = 3 independent
Source data are provided as a Source Data file.

[4] = Solubility in water (spectrophotometer at 280nm, turbidity); conditions: water
Experimental: Supplementary Fig. 7. […] (a) THP1 cells were exposed to the indicated doses of XQ2 or XQ2B for 48h. The cell viability was measured by CCK8 assay. (b) The comparison of solubility of XQ2 and XQ2B. The maximum concentration of XQ2 or XQ2B dissolved in water was measured by a spectrophotometer at 280nm. […]
as §7

[5] = system: primary human PBMCs; test: qPCR of IFNB1 and IL6 mRNA in ISD-stimulated PBMCs; format: cell-based; set-up: key to IFNB1 mRNA, qPCR, Fig. 2c / IL6 mRNA, qPCR, Fig. 2c / IFNB1 mRNA (Fig. S7f) / IL6 mRNA (Fig. S7f): relative mRNA level, target CT normalized to GAPDH CT
Experimental: (§8) The indicated cells were stimulated with either ISD (Sangon Biotech), HSV-1 (Provided by Dr. Zhengfan Jiang), HSV60mer (Sangon Biotech), SATE-cddA[70], 2’3’-cGAMP (Invivogen, Cat# tlrl-nacga23-1), ADU-S100 (MedChemExpress, Cat# HY-12885A) or Poly(I:C) (Invivogen, Cat# tlrl-pic) after XQ2 or XQ2B treatment. Total RNA was isolated from indicated cells that incubated with the drugs for indicated time or mice tissues by using NucleoZOL reagent (MACHEREY-NAGEL) according to the manufacturer’s instructions. The quantifications of mRNA levels were carried out by real-time PCR using a PerfectStart® Uni RT&qPCR Kit (TransGen Biotech) on the QuantStudio 5 qPCR machine (Applied Biosystems). Samples were carried out in triplicate and the target CT values were normalized to GAPDH CT values. Primers of qPCR used in this study can be found in Supplementary Table S2.

[6] = system: THP1 cells stimulated with poly (I: C) (TLR3 and RIG-I/MDA-5 pathways); test: qPCR of IFNB1 mRNA in THP1 cells stimulated by poly (I: C); format: cell-based, human
Source text: We next evaluated the inhibitory effect of XQ2 against cGAS in murine fibroblast L929 cells, macrophage RAW264.7 cells and primary bone marrow-derived macrophages (BMDMs) from C57BL/6 mice.
as §8

Structure (SMILES): CC(C)C[C@@H]1NC(=O)[C@H](CCCNC(=N)N)NC(=O)[C@H](C(C)C)NC(=O)[C@@H]2CCCN2C(=O)[C@@H](Cc2ccccc2)NC(=O)[C@H](CC(C)C)NC(=O)[C@H](CCCNC(=N)N)NC(=O)[C@H]([C@@H](C)O)NC(=O)[C@H](C)NC(=O)[C@@H](Cc2ccccc2)NC1=O [XQ2B] (cyclo([dF]ATRL[dF]PVRL))
- viability at 48 h, 0.195312 µM [1]: 100%
- viability at 48 h, 0.390625 µM [1]: 98%
- viability at 48 h, 0.78125 µM [1]: 101%
- viability at 48 h, 1.5625 µM [1]: 108%
- viability at 48 h, 3.125 µM [1]: 97.6%
- viability at 48 h, 6.25 µM [1]: 113%
- viability at 48 h, 12.5 µM [1]: 100%
- viability at 48 h, 25 µM [1]: 104%
- viability at 48 h, 50 µM [1]: 68.2%
- viability at 48 h, 100 µM [1]: 3.61%
- viability at 48 h, 200 µM [1]: 3.63%
- viability at 48 h, 400 µM [1]: 3.62%
- cytotoxicity [2]: less cytotoxicity
- IC50 ([2]; 48 h): 89.5 ± 31.9 µM
- Cell viability (Fig. S7a) ([2]; 48 h, 0.195312 µM): 104.965
- Cell viability (Fig. S7a) ([2]; 48 h, 0.390625 µM): 103.952
- Cell viability (Fig. S7a) ([2]; 48 h, 100 µM): 3.53
- Cell viability (Fig. S7a) ([2]; 48 h, 200 µM): 3.549
- Cell viability (Fig. S7a) ([2]; 48 h, 400 µM): 3.541
- Cxcl10 mRNA (Fig. S7g) ([3]; ISD+XQ2B): 1166.92 and 1221.79 and 1328.72
- Ifnb1 mRNA (Fig. S7g) ([3]; ISD+XQ2B): 1896.14 and 2591.99 and 2490
- Il6 mRNA (Fig. S7g) ([3]; ISD+XQ2B): 1526.53 and 1838.42 and 1588.85
- Cxcl10 mRNA (Fig. S7g) ([3]; XQ2B alone): 2.509 and 2.275 and 2.115
- Ifnb1 mRNA (Fig. S7g) ([3]; XQ2B alone): 1.291 and 1.1996 and 1.38
- Concentration (solubility, Fig. S7b) [4]: 2890 µg/mL and 2940 µg/mL
- solubility [4]: higher solubility compared to XQ2
- solubility ([4]; Concentration (solubility, Fig. S7b)): 2850 µg/mL (≈ 2370 µM)
- ISD-induced IFNB1 and IL6 expression in PBMCs ([5]; 10 μM): significantly inhibit the activation of cGAS induced by ISD
- IFNB1 mRNA (Fig. S7f) ([5]; PBMCs, ISD+XQ2B): 841.807 and 913.377 and 771.009
- IL6 mRNA (Fig. S7f) ([5]; PBMCs, ISD+XQ2B): 1185.13 and 642.626 and 1199.71
- IFNB1 mRNA level (Fig. S7c) ([6]; Poly(I:C), XQ2B): 1527.76 and 1720.01 and 1878.29
- poly (I: C)-induced IFNB1 expression ([6]; THP1, 10 μM): no significant effect on signaling induced by STING agonists or TLR3 agonist such as poly (I: C)
